Measurements from BindingDB's records for patent US11718622 (Exelixis, 2023).

Experiments:
Adenosine receptor A2a = Adenosine receptor A2a (Homo sapiens, UniProt P29274); experiment: ADORA1A Receptor Binding Assay
Protocol: 2 L of each compound (test compounds, high control compound, low control compound) was transferred into individual wells of an assay plate. Also, to each individual well, 98 µL of Adenosine A1a membrane stock (for ADORA1A Receptor Binding Assay) or Adenosine A2a membrane stock (for ADORA2A Receptor Binding Assay) was dispensed, followed by 100 L of radio-labeled ligand. Plates were then sealed and incubated at room temperature for 1 hour (for ADORA1A Receptor Binding Assay) or 2 hours (for ADORA2A Receptor Binding Assay). Unifilter-96 GF/C filter plates were pre-soaked with 50 µL of 0.3% PEI per well for at least 30 min at room temperature. When binding assays were completed, reaction mixtures were filtered through GF/C plates using a Perkin Elmer Filtermate Harvester, and then each plate was washed 4 with cold wash buffer. Filter plates were then dried for 1 hour at 50 ° C. After drying, the bottom of the filter plate wells was sealed using Perkin Elmer Unifilter-96 backing seal tape. […] 3H trapped on the filter was counted using a Perkin Elmer MicroBeta2 Reader. Data analysis was performed using GraphPad Prism 5 software, and the Inhibition [% Control] was calculated using the following equation: % Inh=(1 Background subtracted Assay value/Background subtracted HC value) *100.

Adenosine receptor A2b = molecular target: T1, Adenosine receptor A2b (Homo sapiens, UniProt P29275); experiment: ADORA2B Receptor Binding Assay
T1 sequence (P29275 whole entry): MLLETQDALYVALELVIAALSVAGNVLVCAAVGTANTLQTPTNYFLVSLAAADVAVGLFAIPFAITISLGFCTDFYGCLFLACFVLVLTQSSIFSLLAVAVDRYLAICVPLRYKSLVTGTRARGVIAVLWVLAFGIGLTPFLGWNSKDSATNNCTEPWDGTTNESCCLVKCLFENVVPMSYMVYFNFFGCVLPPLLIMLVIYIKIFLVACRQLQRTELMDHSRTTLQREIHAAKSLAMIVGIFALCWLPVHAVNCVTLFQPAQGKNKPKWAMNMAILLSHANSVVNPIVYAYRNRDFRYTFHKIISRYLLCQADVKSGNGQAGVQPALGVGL
Protocol: 100 μL of Adenosine A2B membrane stock was dispensed into individual wells of an assay plate. 1 μL of each compound (test compounds, high control compound, low control compound) was then transferred into individual wells, followed by 100 μL of radio-labeled ligand. Plates were then sealed, and incubated at room temperature for 1 hour. Unifilter-96 GF/C filter plates were pre-soaked with 50 μL of 0.5% BSA per well for at least 30 min at room temperature. When binding assays were completed, reaction mixtures were filtered through GF/C plates using a Perkin Elmer Filtermate Harvester, and then each plate was washed 4× with cold wash buffer. Filter plates were then dried for 1 hour at 50° C. After drying, the bottom of the filter plate wells was sealed using Perkin Elmer Unifilter-96 backing seal tape. 50 μL of Perkin Elmer Microscint 20 cocktail was then added, and the top of the filter plate was then sealed using Perkin Elmer TopSeal-A sealing film. 3H trapped on the filter was counted using a Perkin Elmer MicroBeta2 Reader. Data analysis was performed using GraphPad Prism 5 software, and the Inhibition [% Control] was calculated using the following equation: % Inh=(1−Background subtracted Assay value/Background subtracted HC value) *100.

Sequence of Adenosine receptor A2a (P29274 whole entry): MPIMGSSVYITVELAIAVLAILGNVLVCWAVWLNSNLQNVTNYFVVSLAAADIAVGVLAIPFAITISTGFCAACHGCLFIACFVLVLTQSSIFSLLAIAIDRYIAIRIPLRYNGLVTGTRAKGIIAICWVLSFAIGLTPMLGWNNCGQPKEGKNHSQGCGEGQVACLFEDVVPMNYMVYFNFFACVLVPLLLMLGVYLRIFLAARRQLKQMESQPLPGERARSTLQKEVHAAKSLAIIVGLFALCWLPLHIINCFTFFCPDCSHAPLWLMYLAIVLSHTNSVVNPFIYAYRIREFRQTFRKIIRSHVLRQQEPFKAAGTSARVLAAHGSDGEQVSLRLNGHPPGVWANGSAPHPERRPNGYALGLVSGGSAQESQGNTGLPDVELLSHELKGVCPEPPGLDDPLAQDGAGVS

| IC50 (Adenosine receptor A2a) [nM] | IC50 (Adenosine receptor A2b) [nM] | Compound |
| --- | --- | --- |
| < 10 | < 10 | Cc1ccc(-c2nc(N)c(C#N)c3nc(C(F)(F)F)nn23)o1 [US11718622, Compound 46] |
| < 10 | < 10 | Nc1nc2c(-c3ccco3)nc(NC(=O)C3CC3)cn2n1 [US11718622, Compound 186] |
